Data reported in patent US20170164607A1, “METHODS OF EXTENDING THE SHELF LIFE OF SUGARCANE STEM SECTIONS AND COATED SUGARCANE STEM SECTIONS” (Syngenta Participations AG, priority 2014, published 2017).
Where two headings read alike, the source gives them in different places.

Columns and labels:
sugarcane stem sections [1] = details: 300, 600 and 1200 μMol AgNO3; storage up to three weeks in air-tight jars at 16° C.; biochamber boxes or potted soil trays; FIGS. 2-7
Source text: Sugarcane stem sections (i.e., two varieties: CP 88-1762 and CP00-1101) having a diameter of approximately 25-30 mm and a length of approximately 50 mm were cut and coated (or left uncoated) as described in Example 1 using coating compositions having AgNO3 concentrations of 0, 300, 600 and 1200 μMol of AgNO3. The coated and control uncoated sugarcane stem sections were then planted as is or stored for a period of time up to three weeks in one gallon air-tight jars (i.e., about 20 coated sugarcane stem sections per jar) at 16° C. Following storage, the coated and control uncoated sugarcane stem sections were then germinated in either biochamber boxes or potted soil trays (i.e., 5 jars each) or both. All coated and control uncoated sugarcane stem sections were planted and evaluated as follows: germination rates were taken in the biochamber boxes at 3, 5, and 7 days after removal from the jars: germination rates were taken in the potted trays at 10, 12, and 14 days after removal from the jars.

sugarcane stem sections [2] = details: for Avg. Germ / Avg. Height: evaluated seven days after planting
Experimental: Sugarcane stem sections having a diameter of approximately […] and a length of approximately 50 mm were generated (e.g., cut) from sugarcane stalks. One set of cut sugarcane stem section were dipped into the coating compositions for a dwell time of about 60 seconds, and subsequently allowed to dry at room temperature (i.e., about 30° C. Another set of control sugarcane stem sections were not coated and remained at room temperature (i.e., about 30° C.) (i.e., identified below as “No AgNO3”). The coated and control uncoated sugarcane stem sections were then planted as is (i.e., these stem sections are identified below as “Day Zero”) or stored for a period of time up to three weeks in an air tight jar at room temperature (i.e., about 30° C.). Following storage, the coated and control uncoated sugarcane stem sections were then germinated in biochamber boxes. All coated and control uncoated sugarcane stem sections were germinated in a growth chamber and evaluated seven days after planting.

[3] = test system: sugarcane stem sections of CP88-1762
Source text: Sugarcane stem sections of CP88-1762 having a diameter of approximately 25-30 mm and a length or approximately 50 mm were coated with a standard treatment slurry (designated control treatment) or treated with the standard treatment slurry which also contained AgNO3 at a concentration of 600 μMol of AgNO3 (designated as AgNO3 treatment). The AgNO3 treated and control sugarcane stem sections were then planted as is or stored for a period of time up to three weeks in storage containers as shown in FIG. 1 (i.e., storage containers that allow gas transfer between an interior and an exterior of the storage container) at storage temperatures ranging from 10° C. to 22° C. Following storage, the AgNO3 treated and control sugarcane stem sections were planted in trays of potting soil and placed in a greenhouse. The trays were watered daily to maintain moisture and the greenhouse maintained at 26/20 C maximum/minimum temperatures with 15 hours light. Growth and germination of all AgNO3 treated and control sugarcane stem sections were evaluated at 7, 14, and 21 days after removal from storage containers.

[4] = test system: sugarcane stem sections of CP88-762; details: 14 days after planting
Source text: Sugarcane stem sections of CP88-762 having a diameter of approximately 25-30 mm and a length of approximately 50 mm were cut and treated with a standard treatment slurry or a standard treatment slurry containing AgNO3 at a final concentration of 600 μMol of AgNO3 as described in Example 3. The AgNO3 treated and control (without AgNO3) sugarcane stem sections were then planted as is or stored for an extended period of time up to 42 days in storage containers as shown at FIG. 1 (i.e., storage containers that allow gas transfer between an interior and so exterior of the storage container) at a storage temperature of 10° C. Following storage, the AgNO3 treated and control sugarcane stem sections were planted in trays of potting soil and placed in a greenhouse as described in example 3. All sugarcane stem sections were evaluated for germination and shoot growth at 14 days after planting.

[5] = 200 μMol AgNO3, 2 weeks storage in air tight jar at about 30° C.
[6] = 200 μMol AgNO3, 3 weeks storage in air tight jar at about 30° C.
[7] = 400 μMol AgNO3, 2 weeks storage in air tight jar at about 30° C.
[8] = 400 μMol AgNO3, 3 weeks storage in air tight jar at about 30° C.
[9] = 600 μMol AgNO3, 2 weeks storage in air tight jar at about 30° C.
[10] = 600 μMol AgNO3, 3 weeks storage in air tight jar at about 30° C.
[11] = after a weeks of storage in an air-tight jar (3 weeks rows of Table 1)
[12] = 600 μMol AgNO3 in standard treatment slurry, storage up to three weeks at 10° C. to 22° C. in gas-permeable containers, FIGS. 8-9

Structure (SMILES): O=[N+]([O-])[O-].[Ag+] [AgNO3, silver nitrate]
- germination rates compared to the standard slurry applied sugarcane stem sections (sugarcane stem sections [1]): improved germination rates
- germination compared to the control "no AgNO3" sample (sugarcane stem sections [2]; 200 μmol concentration, 2 weeks of storage in an air-tight jar): increased germination
- Avg. Germ (sugarcane stem sections [2]; [5]): 83.33%
- Avg. Height (sugarcane stem sections [2]; [5]): 51.38 mm
- Avg. Germ (sugarcane stem sections [2]; [6]): 52.50%
- Avg. Height (sugarcane stem sections [2]; [6]): 42.91 mm
- Avg. Germ (sugarcane stem sections [2]; [7]): 52.38%
- Avg. Height (sugarcane stem sections [2]; [7]): 39.66 mm
- Avg. Germ (sugarcane stem sections [2]; [8]): 45.00%
- Avg. Height (sugarcane stem sections [2]; [8]): 30.53 mm
- Avg. Germ (sugarcane stem sections [2]; [9]): 61.90%
- Avg. Height (sugarcane stem sections [2]; [9]): 40.79 mm
- Avg. Germ (sugarcane stem sections [2]; [10]): 87.50%
- Avg. Height (sugarcane stem sections [2]; [10]): 55.19 mm
- germination over the control "non-AgNO3" samples (sugarcane stem sections [2]; [11]): improved germination
- plant height over the control "non-AgNO3" samples (sugarcane stem sections [2]; [11]): improved
- stem section germination ([3]; 600 μMol AgNO3, 7 through 21 days storage): significant enhancement
- shoot lengths ([3]; 600 μMol AgNO3, all storage periods including day 0 planting): significant enhancement
- vitality of sugarcane plants compared to plants from control stem sections ([3]; 600 μMol AgNO3, stored for 14 days at 22° C., 28 days after planting, FIG. 10): much more vitality
- germination rates compared to control sugarcane stem sections [3, 12]: improved germination rates
- plant vitality (as measured by plant height) compared to control sugarcane stem sections [3, 12]: improved
- germination rate ([4]; 600 μMol AgNO3, after 6 weeks storage at 10° C., FIG. 11): 68%
- germination rates compared to control sugarcane stem sections ([4]; 600 μMol AgNO3 in standard treatment slurry, throughout the 42 days of storage at 10° C., FIG. 11): improved germination rates
- plant vitality (as measured by plant height) compared to control sugarcane stem sections ([4]; 600 μMol AgNO3 in standard treatment slurry, throughout the 42 days of storage at 10° C., FIG. 12): improved
